Results reported in patent US5958938A, “Bis-pyrido[4,3-b]carbazole compounds” (Adir et Compagnie, priority 1997, dated 1999).
Like-named read-outs stand apart in the source and are kept apart here.

What was measured:
[1] = tested on: murine leukaemia, L 1210; test: Cytotoxicity, Microculture Tetrazolium Assay, L 1210; type: cell-based; settings: Mus musculus, L1210, 48 h, read-out: IC50 (cytotoxicity)
Source text: (§1) Three cell lines were used:
(§2) The cells are distributed on microplates and exposed to the cytotoxic compounds.

[2] = tested on: murine melanoma, B 16; test: Cytotoxicity, Microculture Tetrazolium Assay, B 16; type: cell-based; settings: for IC50: Mus musculus, read-out: IC50 (cytotoxicity)
Source text: as §1, §2

[3] = tested on: human pulmonary carcinoma, A 549; test: Cytotoxicity, Microculture Tetrazolium Assay, A 549; type: cell-based; settings: for IC50: Homo sapiens, A549, 96 h, read-out: IC50 (cytotoxicity)
Source text: as §1, §2

[4] = tested on: P 388 (murine leukaemia); test: In vivo anti-tumor activity, P 388 i.p.; design: species or system female BDF1 mice; settings: for Long-term survivors/total no. of mice: survivors at 60 days
Experimental: Line P 388 (murine leukaemia) is supplied by The National Cancer Institute (Frederick, USA). The tumor cells (10^6 cells) are inoculated on day 0 into the peritoneal cavity of female BDF1 mice (Iffa-Credo, France) weighing from 18 to 20 g (groups of 6 or 7 animals).
The products are administered intravenously on day 1 or on days 1, 5 and 9 at the doses indicated.
The anti-tumor activity is expressed as % T/C: [formula]
The animals surviving at 60 days (long-term survivors) are indicated.

[5] = tested on: B 16 (murine melanoma); test: In vivo anti-tumor activity, B 16 i.p.; design: species or system BDF1 mouse; settings: for % T/C / Long-term survivors/total no. of mice: D1-9, i.p.; for Long-term survivors/total no. of mice: survivors at 90 days
Experimental: Line B 16 (murine melanoma) is supplied by The National Cancer Institute (Frederick, USA). The tumor is maintained by successive subcutaneous grafts of tumor fragments. On day 0, the tumors are broken up and homogenised in 0.9% NaCl (1 g, of tumor in 10 ml) and 0.5 ml of the homogenate is injected into the peritoneal cavity of each BDF1 mouse. The products are administered intraperitoneally at the doses indicated once a day for 9 days (D1-9).
The anti-tumor activity is expressed as % T/C, as defined above. The animals surviving at 90 days (long-term survivors) are indicated.

[6] = B16, 96 h, B 16, 4 days incubation
[7] = D1,5,9, i.v., optimum dose 10 mg/kg
[8] = D1, i.v., optimum dose 10 mg/kg
[9] = D1,5,9, i.v., optimum dose 80 mg/kg
[10] = D1, i.v., optimum dose 80 mg/kg

Cc1c2c(C(=O)NCCN(C)C)nccc2c(C)c2c1c1cc(OC(=O)CCCCC(=O)Oc3ccc4c(c3)c3c(C)c5c(C(=O)NCCN(C)C)nccc5c(C)c3n4C)ccc1n2C [Example 1, bis[1-(2-dimethylaminoethylcarbamoyl)-5,6, 11-trimethyl-6H-pyrido[4,3-b]carbazol-9-yl] ester of hexanedloic acid]
IC50 ([1]; L 1210, 2 days incubation): 73.5 nM
Cytotoxicity compared with reference products A and B ([2]; B 16, in words): more cytotoxic than reference products A and B
Cytotoxicity compared with line L 1210 ([2]; B 16 versus L 1210, in words): greater for lines B 16 and A 549 than for line L 1210
IC50 [2, 6]: 3 nM
Cytotoxicity compared with reference products A and B ([3]; A 549, in words): more cytotoxic than reference products A and B
Cytotoxicity compared with line L 1210 ([3]; A 549 versus L 1210, in words): greater for lines B 16 and A 549 than for line L 1210
IC50 ([3]; A 549, 4 days incubation): 17.6 nM
% T/C [4, 7]: > 582%
Long-term survivors/total no. of mice [4, 7]: 3/6
% T/C [4, 8]: 252%
Long-term survivors/total no. of mice [4, 8]: 1/6
Anti-tumor activity compared with reference product A ([4]; leukaemia P 388 model, in words): more potent than, and as active as, reference product A
% T/C ([5]; optimum dose 5 mg/kg): 429%
Long-term survivors/total no. of mice ([5]; optimum dose 5 mg/kg): 3/7
Long-term survivors ([5]; melanoma B 16 model, at the optimum dose): 3 long-term survivors
Anti-tumor activity ([5]; melanoma B 16 model, in words): very active

Cc1c2ccnc(C(=O)NCCN(C)C)c2cc2c3cc(O)ccc3n(C)c12 [Reference A, 1-(N,N-dimethylaminoethylaminocarbamoyl)-5,6-diiethyl-9-hydroxy-6H-pyrido-[4,3-b]carbazole, reference compound]
IC50 ([1]; L 1210, 2 days incubation): 7.8 nM
IC50 [2, 6]: 5.1 nM
IC50 ([3]; A 549, 4 days incubation): 30.5 nM
% T/C [4, 9]: 320%
Long-term survivors/total no. of mice [4, 9]: 2/6
% T/C [4, 10]: 221%
Long-term survivors/total no. of mice [4, 10]: 0/6
% T/C ([5]; optimum dose 10 mg/kg): 190%
Long-term survivors/total no. of mice ([5]; optimum dose 10 mg/kg): 0/7
Long-term survivors ([5]; melanoma B 16 model, in words): none

COc1cccc2c1C(=O)c1c(O)c3c(c(O)c1C2=O)C[C@@](O)(C(=O)CO)C[C@@H]3O[C@H]1C[C@H](N)[C@H](O)[C@H](C)O1 [Reference B, adriamycin, reference compound]
IC50 [1]: 24.3 nM
IC50 ([2]; 96 h): 6.8 nM
IC50 [3]: 39.4 nM
